# Earlier results, collected in patent US20040266704A1, “Method comprising irinotecan for treatment of breast cancer” (priority 2003, published 2004).
# Experiments:
# [1] = test system: advanced or recurrent breast cancer; settings: intravenous drip-infusion; patients with advanced breast cancer
# [2] = test system: advanced breast cancer; settings: intravenous; patients with prior endocrine therapy and prior chemotherapy including adriamycin or other anthracyclines
# [3] = test system: recurrent breast cancer; settings: intravenous; four cases, previous chemotherapy including doxorubicin
# [4] = test system: anthracycline resistant metastatic breast cancer; settings: intravenous salvage therapy; twelve patients, prior chemotherapy including an anthracycline
# [5] = test system: advanced and metastatic breast cancer pretreated with doxorubicin and docetaxel; settings: intravenous
# [6] = test system: refractory advanced breast cancer; settings: IV, two schedules; 103 patients who failed an anthracycline, a taxane or both; preliminary data
structure (smiles),measurement,setting,value
"CCc1c2c(nc3ccc(OC(=O)N4CCC(N5CCCCC5)CC4)cc13)-c1cc3c(c(=O)n1C2)COC(=O)[C@]3(O)CC [CPT-11, [1,4′-Bipiperidine]-1′-carboxylic acid (4S)-4,11-diethyl-3,4,12,14-tetrahydro-4-hydroxy-3,14-dioxo-1H-pyrano[3′,4′:6,7]indolizino[1,2-b]quinolin-9-yl ester]",clinical efficacy against advanced or recurrent breast cancer,[1],effective
same,clinical efficacy in advanced breast cancer,[2],promising drug
same,clinical efficacy against advanced or recurrent breast cancer,[3],effective agent
same,treatment results in metastatic breast cancer,[4],satisfactory
same,clinical efficacy in the salvage setting,[5],inactive
same,toxicity profile,[6],acceptable toxicity profile
